Results reported in patent publication US11434242B2, “Dopamine-b-hydroxylase inhibitors” (BIAL-PORTELA & Cª, S.A., priority 2017, dated 2022).
Where a name gives a salt, the structure may show the parent alone.

What was measured:
[1] = target: T1, Dopamine beta hydroxylase (Homo sapiens, UniProt P09172); test: Dopamine beta hydroxylase activity in human plasma; type: biochemical; details: for Plasma (0.1 μM), activity in % of control: inhibitor 0.1 μM; for Plasma (0.01 μM), activity in % of control: inhibitor 0.01 μM
T1 construct: 125 μl of plasma; tissue Instituto Português do Sangue Transplantação; host or cells: human plasma from healthy donors
T1 sequence (P09172 40-617 limits assumed): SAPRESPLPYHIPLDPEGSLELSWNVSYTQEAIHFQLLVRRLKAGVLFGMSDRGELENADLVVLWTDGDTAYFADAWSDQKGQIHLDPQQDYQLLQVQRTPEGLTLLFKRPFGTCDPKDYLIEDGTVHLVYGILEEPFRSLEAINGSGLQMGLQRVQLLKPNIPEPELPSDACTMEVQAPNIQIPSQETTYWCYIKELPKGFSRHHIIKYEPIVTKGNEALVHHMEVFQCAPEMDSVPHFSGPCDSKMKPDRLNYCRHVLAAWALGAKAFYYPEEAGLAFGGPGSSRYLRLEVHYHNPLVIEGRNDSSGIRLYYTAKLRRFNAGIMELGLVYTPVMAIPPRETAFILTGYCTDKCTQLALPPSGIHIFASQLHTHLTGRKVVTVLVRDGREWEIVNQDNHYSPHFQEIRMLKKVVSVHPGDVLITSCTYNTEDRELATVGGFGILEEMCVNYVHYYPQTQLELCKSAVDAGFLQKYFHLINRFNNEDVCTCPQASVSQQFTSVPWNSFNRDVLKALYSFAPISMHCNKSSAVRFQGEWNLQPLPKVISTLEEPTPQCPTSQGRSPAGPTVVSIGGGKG
Summary of the method: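 Healthy-donor human plasma pre-incubated 10 min at 37° C with compound at final 10, 100 or 1000 nM in pH 5.0 acetate buffer with ascorbate, fumarate, pargyline, N-ethylmaleimide, catalase and copper sulfate. Tyramine substrate then added for 45 min; octopamine formed was isolated by SCX cartridge, periodate-converted and read at 330 nm; activity given as % control.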

[2] = system: noradrenaline (NA) in brain stem; test: Catecholamine determination: noradrenaline in brain stem after oral administration; type: in vivo, Wistar rats; details: 10 mg/kg oral; for NA in Br.s (% Control): rat brain stem noradrenaline, 15 h post-dose, mean±SD of 4 rats; for effect on levels of NA in CNS tissues such as brain stem: rat
Procedure: Catecholamines quantification in brain stem was performed as previously described (Bonifacio, M. J.; Sousa, F.; Neves, M.; Palma, N.; Igreja, B.; Pires, N. M.; Wright, L. C.; Soares-da-Silva, P. “Characterization of the interaction of the novel anthyhypertensive etamicastat with human dopamine-beta-hydroxylase: comparison with nepicastat.” Eur. J. Pharmacol. 751, 50-58, 2015) with minor modifications. Test compounds were prepared in 40% of kleptose at a concentration of 2.5 mg/ml to be administered at a dose of 10 mg/kg. Compounds and vehicle (kleptose 40%) were administered to Wistar rats and tissues (brain stem or heart left ventricle) collected in perchloric acid (0.2M) at defined time points after administration. Tissues were stored overnight at 4° C. and the solution was then filtered by centrifugation (1500 g, 4 min, 4° C.) through 0.22 μm pore size filters (Costar Spin-x from Corning Inc., USA). Catecholamines were quantified in filtrates by directly injecting 50 μl of sample volume on a HPLC system with electrochemical detection, using a Spheri-5RP-185 mm column (Perkin-Elmer). Mobile phase consisted of a solution containing 0.1M citric acid, 0.1M sodium acetate, 0.15 mM EDTA, 1 mM dibutylamine, 1 mM octylsulfate, and 5% methanol adjusted to pH 3.5 with perchloric acid.

Cl.Fc1ccc(Cl)cc1[C@]12C[C@H]1c1c(CCN3CCOCC3)[nH]c(=S)n1C2 [Example 174, (5aS,6aR)-5a-(5-chloro-2-fluorophenyl)-1-(2-morpholinoethyl)-5,5a,6,6a-tetrahydrocyclopropa[3,4]pyrrolo[1,2-c]imidazole-3(2H)-thione hydrochloride]
Plasma (0.1 μM), activity in % of control [1]: 52.7 % of control | Plasma (1 μM), activity in % of control ([1]; inhibitor 1 μM): 8.5 % of control | NA in Br.s (% Control) [2]: 84 ± 8 % Control | effect on levels of NA in CNS tissues such as brain stem [2]: failed to reduce levels of NA

F.Fc1ccc(Br)cc1[C@]12C[C@H]1c1c(CCN3CCOCC3)[nH]c(=S)n1C2 [Example 191, (5aS,6aR)-5a-(5-bromo-2-fluorophenyl)-1-(2-morpholinoethyl)-5,5a,6,6a-tetrahydrocyclopropa[3,4]pyrrolo[1,2-c]imidazole-3(2H)-thione hydrofluoride]
Plasma (0.01 μM), activity in % of control [1]: 82.3 % of control | Plasma (0.1 μM), activity in % of control [1]: 26.0 % of control | NA in Br.s (% Control) [2]: 83 ± 10 % Control | effect on levels of NA in CNS tissues such as brain stem [2]: failed to reduce levels of NA

Fc1ccc(Br)c(F)c1[C@@H]1Cc2c(CCN3CCOCC3)[nH]c(=S)n2C1 [Example 195, (S)-6-(3-bromo-2,6-difluorophenyl)-1-(2-morpholinoethyl)-2,5,6,7-tetrahydro-3H-pyrrolo[1,2-c]imidazole-3-thione]
Plasma (0.01 μM), activity in % of control [1]: 77.3 % of control | Plasma (0.1 μM), activity in % of control [1]: 41.7 % of control | NA in Br.s (% Control) [2]: 123 ± 55 % Control | effect on levels of NA in CNS tissues such as brain stem [2]: failed to reduce levels of NA

Fc1cc(F)c(F)c([C@H]2Cc3c(CCCN4CCCC4)[nH]c(=S)n3C2)c1F [Example 219, (R)-1-(3-(pyrrolidin-1-yl)propyl)-6-(2,3,5,6-tetrafluorophenyl)-2,5,6,7-tetrahydro-3H-pyrrolo[1,2-c]imidazole-3-thione hydrochloride]
Plasma (0.01 μM), activity in % of control [1]: 69.9 % of control | Plasma (0.1 μM), activity in % of control [1]: 19.7 % of control | NA in Br.s (% Control) [2]: 92 ± 23 % Control | effect on levels of NA in CNS tissues such as brain stem [2]: failed to reduce levels of NA

Cn1c(CC(=O)O)c2n(c1=S)C[C@@]1(c3c(F)ccc(Cl)c3F)C[C@@H]21 [Example 231, 2-((5aS,6aR)-5a-(3-chloro-2,6-difluorophenyl)-2-methyl-3-thioxo-2,3,5,5a,6,6a-hexahydrocyclopropa[3,4]pyrrolo[1,2-c]imidazol-1-yl)acetic Acid]
Plasma (0.01 μM), activity in % of control [1]: 35.9 % of control | Plasma (0.1 μM), activity in % of control [1]: 5.6 % of control | NA in Br.s (% Control) [2]: 99 ± 14 % Control | effect on levels of NA in CNS tissues such as brain stem [2]: failed to reduce levels of NA

Cl.Cn1c(CCN[C@@H]2CCOC2)c2n(c1=S)C[C@H](c1c(F)ccc(Br)c1F)C2 [Example 256, (S)-6-(3-bromo-2,6-difluorophenyl)-2-methyl-1-(2-(((R)-tetrahydrofuran-3-yl)amino)ethyl)-2,5,6,7-tetrahydro-3H-pyrrolo[1,2-c]imidazole-3-thione hydrochloride]
Plasma (0.01 μM), activity in % of control [1]: 61.7 % of control | Plasma (0.1 μM), activity in % of control [1]: 29.2 % of control | NA in Br.s (% Control) [2]: 128 ± 64 % Control | effect on levels of NA in CNS tissues such as brain stem [2]: failed to reduce levels of NA

CN(C(=O)Cc1c2n(c(=S)n1C)C[C@@]1(c3c(F)ccc(Cl)c3F)C[C@@H]21)C1COC1 [Example 403, 2-((5aS,6aR)-5a-(3-chloro-2,6-difluorophenyl)-2-methyl-3-thioxo-2,3,5,5a,6,6a-hexahydrocyclopropa[3,4]pyrrolo[1,2-c]imidazol-1-yl)-N-methyl-N-(oxetan-3-yl)acetamide]
Plasma (0.01 μM), activity in % of control [1]: 29.9 % of control | Plasma (0.1 μM), activity in % of control [1]: 4.8 % of control | NA in Br.s (% Control) [2]: 87 ± 16 % Control | effect on levels of NA in CNS tissues such as brain stem [2]: failed to reduce levels of NA
